Measurements as given in patent publication US12077503B2, “Substituted cyclic amides and their use as herbicides” (FMC CORPORATION, priority 2015, dated 2024).
Read-outs that look alike come from different tables or passages of the source.

Assays:
[1] = system: pigweed (Amaranthus retroflexus); assay: Test A preemergence; assay type: in vivo; conditions: Amaranthus retroflexus, pre-emergence, 240 h; for pest or weed control at 500 g/ha: 500 g ai/ha; for pest or weed control at 125 g/ha: 125 g ai/ha
[2] = system: barnyardgrass (Echinochloa crus-galli); assay: Test A preemergence; assay type: in vivo; conditions: Echinochloa crus-galli, pre-emergence, 240 h; for pest or weed control at 500 g/ha: 500 g ai/ha; for pest or weed control at 125 g/ha: 125 g ai/ha
Procedure, shortened: (§1)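 Each rating is a visual injury score from 0 to 100 given about 10 d after treatment, judged against untreated controls kept alongside in the greenhouse. In loam soil–sand blend, seeds got a preemergence directed soil spray, while postemergence plants were 2 to 10 cm tall at spraying.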

Kochia (Kochia scoparia) = assay: Test A preemergence; assay type: in vivo; conditions: Bassia scoparia, pre-emergence, 240 h; for pest or weed control at 500 g/ha: 500 g ai/ha; for pest or weed control at 125 g/ha: 125 g ai/ha
Procedure, shortened: as §1

[3] = system: giant foxtail (Setaria faberii); assay: Test A preemergence; assay type: in vivo; conditions: Setaria faberi, pre-emergence, 240 h; for pest or weed control at 500 g/ha: 500 g ai/ha; for pest or weed control at 125 g/ha: 125 g ai/ha
Procedure, shortened: as §1

[4] = system: ryegrass, Italian (Italian ryegrass, Lolium multiflorum); assay: Test A preemergence; assay type: in vivo; conditions: Lolium multiflorum, pre-emergence, 240 h; for pest or weed control at 500 g/ha: 500 g ai/ha; for pest or weed control at 125 g/ha: 125 g ai/ha
Procedure, shortened: as §1

[5] = system: ragweed (common ragweed, Ambrosia elatior); assay: Test A preemergence; assay type: in vivo; conditions: Ambrosia artemisiifolia, pre-emergence, 240 h; for pest or weed control at 500 g/ha: 500 g ai/ha; for pest or weed control at 125 g/ha: 125 g ai/ha
Procedure, shortened: as §1

[6] = preemergence, 0 to 100 scale (0 no effect, 100 complete control), read-out: Plant response rating, Pigweed
[7] = Preemergence, 0 to 100 scale (0 no effect, 100 complete control), read-out: Plant response rating, Pigweed
[8] = preemergence, 0 to 100 scale (0 no effect, 100 complete control), read-out: Plant response rating, Barnyardgrass
[9] = Preemergence, 0 to 100 scale (0 no effect, 100 complete control), read-out: Plant response rating, Barnyardgrass
[10] = preemergence, 0 to 100 scale (0 no effect, 100 complete control), read-out: Plant response rating, Kochia
[11] = Preemergence, 0 to 100 scale (0 no effect, 100 complete control), read-out: Plant response rating, Kochia
[12] = preemergence, 0 to 100 scale (0 no effect, 100 complete control), read-out: Plant response rating, Foxtail, Giant
[13] = Preemergence, 0 to 100 scale (0 no effect, 100 complete control), read-out: Plant response rating, Foxtail, Giant
[14] = preemergence, 0 to 100 scale (0 no effect, 100 complete control), read-out: Plant response rating, Ryegrass, Italian
[15] = Preemergence, 0 to 100 scale (0 no effect, 100 complete control), read-out: Plant response rating, Ryegrass, Italian
[16] = preemergence, 0 to 100 scale (0 no effect, 100 complete control), read-out: Plant response rating, Ragweed
[17] = Preemergence, 0 to 100 scale (0 no effect, 100 complete control), read-out: Plant response rating, Ragweed
[18] = preemergence, visual rating after approx. 10 d, 0 to 100 scale where 0 is no effect and 100 is complete control, read-out: Plant response rating, Pigweed
[19] = preemergence, visual rating after approx. 10 d, 0 to 100 scale where 0 is no effect and 100 is complete control, read-out: Plant response rating, Barnyardgrass
[20] = preemergence, visual rating after approx. 10 d, 0 to 100 scale where 0 is no effect and 100 is complete control, read-out: Plant response rating, Kochia
[21] = preemergence, visual rating after approx. 10 d, 0 to 100 scale where 0 is no effect and 100 is complete control, read-out: Plant response rating, Foxtail, Giant
[22] = preemergence, visual rating after approx. 10 d, 0 to 100 scale where 0 is no effect and 100 is complete control, read-out: Plant response rating, Ryegrass, Italian
[23] = preemergence, visual rating after approx. 10 d, 0 to 100 scale where 0 is no effect and 100 is complete control, read-out: Plant response rating, Ragweed
[24] = preemergence, visual injury rating, 0 to 100 scale where 0 is no effect and 100 is complete control, approximately 10 d, read-out: Pigweed plant response rating
[25] = preemergence, 0 to 100 scale where 0 is no effect and 100 is complete control, read-out: Pigweed plant response rating
[26] = preemergence, visual injury rating, 0 to 100 scale where 0 is no effect and 100 is complete control, approximately 10 d, read-out: Barnyardgrass plant response rating
[27] = preemergence, 0 to 100 scale where 0 is no effect and 100 is complete control, read-out: Barnyardgrass plant response rating
[28] = preemergence, visual injury rating, 0 to 100 scale where 0 is no effect and 100 is complete control, approximately 10 d, read-out: Kochia plant response rating
[29] = preemergence, 0 to 100 scale where 0 is no effect and 100 is complete control, read-out: Kochia plant response rating
[30] = preemergence, visual injury rating, 0 to 100 scale where 0 is no effect and 100 is complete control, approximately 10 d, read-out: Foxtail, Giant plant response rating
[31] = preemergence, 0 to 100 scale where 0 is no effect and 100 is complete control, read-out: Foxtail, Giant plant response rating
[32] = preemergence, visual injury rating, 0 to 100 scale where 0 is no effect and 100 is complete control, approximately 10 d, read-out: Ryegrass, Italian plant response rating
[33] = preemergence, 0 to 100 scale where 0 is no effect and 100 is complete control, read-out: Ryegrass, Italian plant response rating
[34] = preemergence, visual injury rating, 0 to 100 scale where 0 is no effect and 100 is complete control, approximately 10 d, read-out: Ragweed plant response rating
[35] = preemergence, 0 to 100 scale where 0 is no effect and 100 is complete control, read-out: Ragweed plant response rating

In the case of O=C1NC[C@H](c2cnc(C(F)(F)F)nc2)[C@H]1C(=O)Nc1cccc(F)c1F [Compound 1382], the melting point is reported as 170 to 173 °C, the pest or weed control at 500 g/ha [1, 6] is reported as 20% and the pest or weed control at 125 g/ha [1, 7] is reported as 20%. For the same compound, the pest or weed control at 500 g/ha [2, 8] was 70%, the pest or weed control at 125 g/ha [2, 9] was 0% and the pest or weed control at 500 g/ha (Kochia (Kochia scoparia); [10]) was 60%. For the same compound, the pest or weed control at 125 g/ha (Kochia (Kochia scoparia); [11]) was 0%, the pest or weed control at 500 g/ha [3, 12] was 90% and the pest or weed control at 125 g/ha [3, 13] was 0%. For the same compound, the pest or weed control at 500 g/ha [4, 14] was 0%, the pest or weed control at 125 g/ha [4, 15] was 0% and the pest or weed control at 500 g/ha [5, 16] was 0%. The pest or weed control at 125 g/ha [5, 17] was 0%.

For CN1C[C@H](c2ccc(C(F)(F)F)cc2)[C@@H](C(=O)Nc2ccccc2C(F)(F)F)C1=O [Compound 726], the melting point was 108 to 111 °C, the pest or weed control at 125 g/ha [1, 18] was 80% and the pest or weed control at 500 g/ha ([1]; preemergence, 0 to 100 scale, 0 = no effect, 100 = complete control, read-out: Plant response rating, Pigweed) was 90%. It also gave a pest or weed control at 125 g/ha [2, 19] of 90%, a pest or weed control at 500 g/ha ([2]; preemergence, 0 to 100 scale, 0 = no effect, 100 = complete control, read-out: Plant response rating, Barnyardgrass) of 90% and a pest or weed control at 125 g/ha (Kochia (Kochia scoparia); [20]) of 70%. The pest or weed control at 500 g/ha (Kochia (Kochia scoparia); preemergence, 0 to 100 scale, 0 = no effect, 100 = complete control, read-out: Plant response rating, Kochia) was 90%, the pest or weed control at 125 g/ha [3, 21] was 90% and the pest or weed control at 500 g/ha ([3]; preemergence, 0 to 100 scale, 0 = no effect, 100 = complete control, read-out: Plant response rating, Foxtail, Giant) was 90%. For the same compound, the pest or weed control at 125 g/ha [4, 22] was 50%, the pest or weed control at 500 g/ha ([4]; preemergence, 0 to 100 scale, 0 = no effect, 100 = complete control, read-out: Plant response rating, Ryegrass, Italian) was 80% and the pest or weed control at 125 g/ha [5, 23] was 30%. The pest or weed control at 500 g/ha ([5]; preemergence, 0 to 100 scale, 0 = no effect, 100 = complete control, read-out: Plant response rating, Ragweed) was 50%.

In the case of CN1C[C@H](c2ccc(C(F)(F)F)cc2)[C@@H](C(=O)Nc2cccc(Cl)c2F)C1=O [Compound 1238], the melting point is reported as 138 to 141 °C, the pest or weed control at 125 g/ha [1, 24] is reported as 0% and the pest or weed control at 500 g/ha [1, 25] is reported as 60%. It also gave a pest or weed control at 125 g/ha [2, 26] of 80%, a pest or weed control at 500 g/ha [2, 27] of 90% and a pest or weed control at 125 g/ha (Kochia (Kochia scoparia); [28]) of 60%. It also gave a pest or weed control at 500 g/ha (Kochia (Kochia scoparia); [29]) of 60%, a pest or weed control at 125 g/ha [3, 30] of 90% and a pest or weed control at 500 g/ha [3, 31] of 90%. For the same compound, the pest or weed control at 125 g/ha [4, 32] was 0%, the pest or weed control at 500 g/ha [4, 33] was 50% and the pest or weed control at 125 g/ha [5, 34] was 0%. For the same compound, the pest or weed control at 500 g/ha [5, 35] was 50%.

C/C=C/C1CNC(=O)C1C(=O)Nc1cccc(F)c1F (stereo not drawn) [Compound 793] gave a melting point of 151 to 155 °C, a pest or weed control at 125 g/ha [1, 18] of 0% and a pest or weed control at 31 g/ha ([1]; Preemergence, 31 g ai/ha, 0 to 100 scale (0 no effect, 100 complete control), read-out: Plant response rating, Pigweed) of 0%. The pest or weed control at 125 g/ha [2, 19] was 0%, the pest or weed control at 31 g/ha ([2]; Preemergence, 31 g ai/ha, 0 to 100 scale (0 no effect, 100 complete control), read-out: Plant response rating, Barnyardgrass) was 0% and the pest or weed control at 125 g/ha (Kochia (Kochia scoparia); [20]) was 0%. It also gave a pest or weed control at 31 g/ha (Kochia (Kochia scoparia); Preemergence, 31 g ai/ha, 0 to 100 scale (0 no effect, 100 complete control), read-out: Plant response rating, Kochia) of 0%, a pest or weed control at 125 g/ha [3, 21] of 0% and a pest or weed control at 31 g/ha ([3]; Preemergence, 31 g ai/ha, 0 to 100 scale (0 no effect, 100 complete control), read-out: Plant response rating, Foxtail, Giant) of 0%. For the same compound, the pest or weed control at 125 g/ha [4, 22] was 0%, the pest or weed control at 31 g/ha ([4]; Preemergence, 31 g ai/ha, 0 to 100 scale (0 no effect, 100 complete control), read-out: Plant response rating, Ryegrass, Italian) was 0% and the pest or weed control at 125 g/ha [5, 23] was 0%. It also gave a pest or weed control at 31 g/ha ([5]; Preemergence, 31 g ai/ha, 0 to 100 scale (0 no effect, 100 complete control), read-out: Plant response rating, Ragweed) of 0%.

In the case of CN1CC(c2cccc(OCC=C(Cl)Cl)c2)C(C(=O)Nc2cccc(F)c2F)C1=O (stereo not drawn) [Compound 1303], the melting point is reported as 124 to 127 °C, the pest or weed control at 125 g/ha [1, 24] is reported as 0% and the pest or weed control at 500 g/ha [1, 25] is reported as 30%. It also gave a pest or weed control at 125 g/ha [2, 26] of 0%, a pest or weed control at 500 g/ha [2, 27] of 30% and a pest or weed control at 125 g/ha (Kochia (Kochia scoparia); [28]) of 0%. The pest or weed control at 500 g/ha (Kochia (Kochia scoparia); [29]) was 0%, the pest or weed control at 125 g/ha [3, 30] was 40% and the pest or weed control at 500 g/ha [3, 31] was 90%. The pest or weed control at 125 g/ha [4, 32] was 0%, the pest or weed control at 500 g/ha [4, 33] was 0% and the pest or weed control at 125 g/ha [5, 34] was 0%. It also gave a pest or weed control at 500 g/ha [5, 35] of 0%.

For Cc1ccc([C@H]2CN(C)C(=O)[C@@H]2C(=O)Nc2ccc(F)c(F)c2F)cc1 [Compound 1378], the melting point was 101.6 to 102.3 °C, the pest or weed control at 500 g/ha [1, 6] was 70% and the pest or weed control at 125 g/ha [1, 7] was 70%. For the same compound, the pest or weed control at 500 g/ha [2, 8] was 90%, the pest or weed control at 125 g/ha [2, 9] was 90% and the pest or weed control at 500 g/ha (Kochia (Kochia scoparia); [10]) was 90%. For the same compound, the pest or weed control at 125 g/ha (Kochia (Kochia scoparia); [11]) was 80%, the pest or weed control at 500 g/ha [3, 12] was 90% and the pest or weed control at 125 g/ha [3, 13] was 90%. It also gave a pest or weed control at 500 g/ha [4, 14] of 90%, a pest or weed control at 125 g/ha [4, 15] of 80% and a pest or weed control at 500 g/ha [5, 16] of 90%. It also gave a pest or weed control at 125 g/ha [5, 17] of 50%.
